Values of other authors in patent US7534449B2, “Targeted and high density drug loaded polymeric materials” (Yale University, priority 2004, dated 2009).

For `COc1cccc2c1C(=O)c1c(O)c3c(c(O)c1C2=O)C[C@@](O)(C(=O)CO)C[C@@H]3O[C@H]1C[C@H](N)[C@H](O)[C@H](C)O1` [Dox, doxorubicin], the pKa is listed as 7.6 and the solubility (aqueous environments) is listed as “limited solubility”.
